These results are taken from US4346103A, “Treatment for arthritis and substances for use in such treatment” (priority 1976, dated 1982).

The nature of series [1]: adhesion to intestinal mucosa / absorption. The following applies: rhein found to adhere, should thus be relatively poorly absorbed. Format: in vivo.
For series [2], the system named is NADH-dehydrogenase complex. As to conditions: interferes with redox function of NADH-dehydrogenase complex, thus mitochondrial oxidations; cited from earlier work.
For series [3] the following is noted: cited from earlier work.
Series [4] is described as follows: acute toxicity trial in mice. Type of series: in vivo. The following applies: 26 mice; doses up to about 3000 mg per kg per day. The protocol: In an acute toxicity trial, 1,8-diacetoxy-3-carboxyanthraquinone (diacetylrhein) was administered to 26 mice in doses of up to about 3000 mg per kg per day.
A short description of series [5]: human ingestion of diacetylrhein for 15 months, side effects. Format: in vivo. The following applies: about 100 mg per day. The protocol: (§1) A human patient having severe osteoarthritis (established by X-ray, CSF and rheumatoid factor assessments) across the lower back was treated with diacetylrhein. The patient had greatly restricted torsal rotation and a notable pain in their back and legs after remaining seated for 30 to 60 minutes. The patient was treated by ingesting two daily doses of 50 mg of diacetylrhein.

The nature of series [6]: treatment of osteoarthritis patients. Format: in vivo, human. The following applies: one patient, severe osteoarthritis across lower back. As to the method: as §1
Series [7] is described as follows: treatment of patients with rheumatoid arthritis of the hands. The following applies: three cases; 50 mg twice daily for between five and ten days. Type of series: in vivo, human. The protocol: In three cases, patients with rheumatoid arthritis of the hands, having swollen fingers and painful joints, were treated with 50 mg of diacetylrhein, twice daily for between five and ten days.

A short description of series [8]: clinical tests on arthritis patients. Type of series: in vivo, human. The source says:
Clinical tests have been carried out on arthritis patients with extremely encouraging results.

Series [9] can be described thus: treatment of MS patients. Type of series: in vivo. As to conditions: four human patients; two daily doses of 50 mg, ingested. The protocol: Four human patients suffering from MS were treated with diacetylrhein. They were treated by ingesting two daily doses of 50 mg diacetylrhein.
A short description of series [10]: treatment of an ALS patient. Type of series: in vivo, human. The following applies: one patient, fairly advanced stage; six months; daily doses increasing up to 150 mg. The protocol: A human patient suffering from ALS in a fairly advanced stage was treated with diacetylrhein over a period of six months. The diacetylrhein was ingested in daily doses increasing up to 150 mg daily.

Series [11] can be described thus: clinical trials in MS and ALS patients. Format: in vivo, human. As to conditions: patients suffering from MS and ALS. From the text: Clinical trials are being carried out in which patients suffering from MS and ALS are being treated with diacetylrhein.
Series [12] can be described thus: side effects in all clinical trials to date. Format: in vivo, human. From the text: In all clinical trials carried out to date with diacetylrhein side effects have been unsignificant.
Where [13] appears, read: two daily doses of 50 mg, ingested.

`O=C(O)c1cc(O)c2c(c1)C(=O)c1cccc(O)c1C2=O` [Rhein, 1,8-dihydroxyanthra-quinone-3-carboxylic acid]: the “adhesion to the intestinal mucosa” value in series [1] is reported as “adheres strongly to the intestinal mucosa”. The “inhibition of NADH-linked oxidation” value in series [2] is on record as “inhibitor of NADH-linked oxidation”. Besides, in [3] (oral ingestion), the toxicity entry is “relatively non-toxic”. In addition, the “side-effects on long-term intake” value in [3] (taken for long periods of time, in the dosage required) is on record as “without any apparent side-effects”.
With `CC(=O)Oc1cccc2c1C(=O)c1c(OC(C)=O)cc(C(=O)O)cc1C2=O` [diacetylrhein, 1,8-diacetoxy-3-carboxyanthraquinone], in [4], the deaths result is on record as “None of the mice died”. The untoward effects entry in series [5] was “No untoward effects were noted”. In [6] (continued treatment), the “condition with continued treatment” value is “maintained their improved condition”. In series [6] (setting [13]), the onset of effect result is “An effect was noted on the fourth and fifth days”; the “pain, torsal rotation and early morning stiffness” value was “became pain free with restored torsal rotation and without early morning stiffness”. In series [7], the “finger thickness (swelling)” value is “The fingers rapidly returned to normal thickness”; the “pain in the joints” value was “the pain in the joints disappeared and was absent even when these were submitted to pressure”. The “failure to respond to treatment” value in series [8] (arthritis patients) is “There has almost never been a failure to respond to this treatment”. The “need for Charnley Hip Operation” value in [8] (patients with arthritis of the hip) is recorded as “sufficient progress for this to be unnecessary”. For the same molecule, in [9], the “pain and limb unsteadiness” value is “The pain and a large part of the limb unsteadiness disappeared within seven to ten days of initiating treatment”. In series [10], the “deterioration: unsteadiness of gait and weakness of voice” value is recorded as “substantially inhibited”; the stabilisation of condition result was “substantially stabilised”. In addition, the “results of clinical trials” value in series [11] is reported as “most encouraging”. In series [12] (all clinical trials carried out to date), the side effects entry is “unsignificant”. Also, the “only side effect encountered” value in [12] (all clinical trials to date, eliminated by reducing the dosage) is “some diarrhoea”.
